Results as given in patent US9382208B1, “Negative allosteric modulators of metabotropic glutamate receptor 2” (Vanderbilt University, priority 2015, dated 2016).
Read-outs that look alike come from different tables or passages of the source.

Tests used:
[1] = system: group II mGlu receptors (mGlu2 and mGlu3); conditions: cited from earlier work
[2] = target: T1, rat mGlu2 (Rattus norvegicus, UniProt P31421); assay: mGlu2 Ca2+ flux assay; assay type: cell-based; conditions: for remaining activity at 30 µM: amplitude of response in the presence of 30 μM test compound as percentage of maximal response to glutamate, read-out: rat mGlu2 Glu max (%)
T1 construct: expressed in transfected cells
Summary of the method: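 Gα15 HEK293 cells stably expressing rat mGlu2, Fluo-4 loaded; compound added, then glutamate at EC20 after 2.3 min and EC80 afterward, calcium flux read as F/F0. Peak amplitude around EC80 addition normalized to glutamate max; IC50 by unconstrained 4-parameter fit, top concentration 30 μM.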

[3] = system: rat; conditions: rat FST, normal animals; cited from earlier work
[4] = system: Aβ-induced neurodegeneration; conditions: cited from earlier work
[5] = system: mouse; conditions: mouse TST, normal animals; cited from earlier work
[6] = system: mice; conditions: cited from earlier work
[7] = system: central mGlu2 and mGlu3 receptors; conditions: in vivo; cited from earlier work
[8] = system: C57B16/J mice; conditions: FST; cited from earlier work
[9] = system: Helpless (H) mice; conditions: cited from earlier work; for activity in the tail suspension test: Helpless (H) mice
[10] = CFS model; cited from earlier work
[11] = system: olfactory bulbectomized rats; conditions: repeated administration for 14 days; cited from earlier work
[12] = system: social isolation-reared mice; conditions: cited from earlier work
[13] = treatment for 7 days; cited from earlier work
[14] = Gα15 HEK293 cells stably expressing rat mGlu2, glutamate EC80 addition, read-out: rat mGlu2 IC50

T1 sequence (P31421 19-872): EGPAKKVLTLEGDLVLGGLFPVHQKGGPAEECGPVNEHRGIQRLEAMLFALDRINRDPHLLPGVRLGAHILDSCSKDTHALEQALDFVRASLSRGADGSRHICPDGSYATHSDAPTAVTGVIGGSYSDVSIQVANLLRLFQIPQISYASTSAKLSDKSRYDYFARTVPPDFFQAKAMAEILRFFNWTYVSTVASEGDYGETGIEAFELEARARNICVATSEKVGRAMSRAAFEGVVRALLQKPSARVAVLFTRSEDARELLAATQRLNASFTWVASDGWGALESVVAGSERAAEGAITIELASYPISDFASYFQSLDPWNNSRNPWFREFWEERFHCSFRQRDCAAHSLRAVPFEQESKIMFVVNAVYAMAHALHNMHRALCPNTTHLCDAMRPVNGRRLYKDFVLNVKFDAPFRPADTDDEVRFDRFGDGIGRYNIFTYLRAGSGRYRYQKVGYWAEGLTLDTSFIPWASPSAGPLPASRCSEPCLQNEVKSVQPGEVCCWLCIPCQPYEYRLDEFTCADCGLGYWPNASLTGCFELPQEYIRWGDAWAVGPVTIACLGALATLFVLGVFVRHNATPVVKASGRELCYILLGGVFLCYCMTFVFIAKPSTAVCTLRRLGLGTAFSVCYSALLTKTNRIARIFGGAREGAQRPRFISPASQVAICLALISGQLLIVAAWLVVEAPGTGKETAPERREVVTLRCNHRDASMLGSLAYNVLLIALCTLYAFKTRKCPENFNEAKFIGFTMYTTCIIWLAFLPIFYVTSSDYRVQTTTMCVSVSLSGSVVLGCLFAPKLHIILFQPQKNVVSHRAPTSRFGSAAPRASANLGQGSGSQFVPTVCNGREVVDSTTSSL

Row | SMILES | IC50 [2, 14] [µM] | remaining activity at 30 µM [2] [%] | further results
1 | CCCCCCCOC(=O)[C@@]1(F)[C@@H]2C[C@@H](OCc3ccc(Cl)c(Cl)c3)[C@@](N)(C(=O)O)[C@@H]21 [BCI-838] | – | – | levels of monomeric and oAβ peptides in the hippocampus and cortex ([1]; three months of treatment, two AD mouse models): decreased; Dutch APP transgene-associated learning and memory impairment ([1]; three months of treatment): reversed; anxiolytic effects ([1]; three months of treatment): anxiolytic effects; hippocampal progenitor cell proliferation ([1]; wild-type and Alzheimer's diseased mice, 3 months): stimulated
2 | CC1CN(Cc2ccc3c(c2)c(=O)c(C(N)=O)cn3-c2ccc(F)cc2)CCO1 (centres unmarked) [Compound 79, 1-(4-fluorophenyl)-6-((2-methylmorpholino)methyl)-4-oxo-1,4-dihydroquinoline-3-carboxamide] | 0.328 ± 0.064 | 1.31 ± 0.04 | –
3 | CN(Cc1ccc2c(c1)c(=O)c(C(N)=O)cn2-c1ccc(F)cc1)C1CC(F)(F)C1 [Compound 80, 6-(((3,3-difluorocyclobutyl)(methyl)amino)methyl)-1-(4-fluorophenyl)-4-oxo-1,4-dihydroquinoline-3-carboxamide] | 0.397 | 1.03 | –
4 | NC(=O)c1cn(-c2ccc(F)cc2)c2ccc(CN3CCN(CC(F)(F)F)CC3)cc2c1=O [Compound 81, 1-(4-fluorophenyl)-4-oxo-6-((4-(2,2,2-trifluoroethyl)piperazin-1-yl)methyl)-1,4-dihydroquinoline-3-carboxamide] | 0.753 | 1.19 | –
5 | CC(=O)N1CCN(Cc2ccc3c(c2)c(=O)c(C(N)=O)cn3-c2ccc(F)cc2)CC1 [Compound 82, 6-((4-acetylpiperazin-1-yl)methyl)-1-(4-fluorophenyl)-4-oxo-1,4-dihydroquinoline-3-carboxamide] | 3.19 | 2.14 | –
6 | CS(=O)(=O)N1CCN(Cc2ccc3c(c2)c(=O)c(C(N)=O)cn3-c2ccc(F)cc2)CC1 [Compound 83, 1-(4-fluorophenyl)-6-((4-(methylsulfonyl)piperazin-1-yl)methyl)-4-oxo-1,4-dihydroquinoline-3-carboxamide] | 0.694 | 1.47 | –
7 | NC(=O)c1cn(-c2ccc(F)cc2)c2ccc(CN3CCS(=O)(=O)CC3)cc2c1=O [Compound 84, 6-((1,1-dioxidothiomorpholino)methyl)-1-(4-fluorophenyl)-4-oxo-1,4-dihydroquinoline-3-carboxamide] | 1.16 | 2.04 | –
8 | NC(=O)c1cn(-c2ccc(F)cc2)c2ccc(CN3CCCS(=O)(=O)CC3)cc2c1=O [Compound 85, 6-((1,1-dioxido-1,4-thiazepan-4-yl)methyl)-1-(4-fluorophenyl)-4-oxo-1,4-dihydroquinoline-3-carboxamide] | 0.422 ± 0.052 | 1.24 ± 0.04 | –
9 | NC(=O)c1cn(-c2ccc(F)cc2)c2ccc(CN3CCC(F)(F)C3)cc2c1=O [Compound 86, 6-((3,3-difluoropyrrolidin-1-yl)methyl)-1-(4-fluorophenyl)-4-oxo-1,4-dihydroquinoline-3-carboxamide] | 0.259 | 0.98 | –
10 | CN1CCN(Cc2ccc3c(c2)c(=O)c(C(N)=O)cn3-c2ccc(F)cc2)CC1 [Compound 87, 1-(4-fluorophenyl)-6-((4-methylpiperazin-1-yl)methyl)-4-oxo-1,4-dihydroquinoline-3-carboxamide] | 1.36 | 0.93 | –
11 | C[C@H]1CN(Cc2ccc3c(c2)c(=O)c(C(N)=O)cn3-c2ccc(F)cc2)CCO1 [Compound 88, (S)-1-(4-fluorophenyl)-6-((2-methylmorpholino)methyl)-4-oxo-1,4-dihydroquinoline-3-carboxamide] | 0.724 | 1.36 | –
12 | C[C@@H]1CN(Cc2ccc3c(c2)c(=O)c(C(N)=O)cn3-c2ccc(F)cc2)CCO1 [Compound 89, (R)-1-(4-fluorophenyl)-6-((2-methylmorpholino)methyl)-4-oxo-1,4-dihydroquinoline-3-carboxamide] | 1.15 | 1.08 | –
13 | CC1(C)CN(Cc2ccc3c(c2)c(=O)c(C(N)=O)cn3-c2ccc(F)cc2)CCO1 [Compound 90, 6-((2,2-dimethylmorpholino)methyl)-1-(4-fluorophenyl)-4-oxo-1,4-dihydroquinoline-3-carboxamide] | 0.142 | 2.01 | –
14 | CN(Cc1cc(F)c2c(c1)c(=O)c(C(N)=O)cn2-c1ccc(F)cc1)C1CC(F)(F)C1 [Compound 91, 6-(((3,3-difluorocyclobutyl)(methyl)amino)methyl)-8-fluoro-1-(4-fluorophenyl)-4-oxo-1,4-dihydroquinoline-3-carboxamide] | > 30 | – | –
15 | C[C@@H]1CN(Cc2cc(F)c3c(c2)c(=O)c(C(N)=O)cn3-c2ccc(F)cc2)C[C@H](C)O1 [Compound 92, 6-((cis-2,6-dimethylmorpholino)methyl)-8-fluoro-1-(4-fluorophenyl)-4-oxo-1,4-dihydroquinoline-3-carboxamide] | 4.41 | 2.23 | –
16 | CC1CN(Cc2cc(F)c3c(c2)c(=O)c(C(N)=O)cn3-c2ccc(F)cc2)CCO1 (centres unmarked) [Compound 93, 8-fluoro-1-(4-fluorophenyl)-6-((2-methylmorpholino)methyl)-4-oxo-1,4-dihydroquinoline-3-carboxamide] | 6.52 | 0.14 | –
17 | NC(=O)c1cn(-c2ccc(F)cc2)c2c(F)cc(CN3CCC(F)(F)CC3)cc2c1=O [Compound 94, 6-((4,4-difluoropiperidin-1-yl)methyl)-8-fluoro-1-(4-fluorophenyl)-4-oxo-1,4-dihydroquinoline-3-carboxamide] | 1.77 | 5.78 | –
18 | NC(=O)c1cn(-c2ccc(F)cc2)c2c(F)cc(CN3CCC(F)(F)C3)cc2c1=O [Compound 95, 6-((3,3-difluoropyrrolidin-1-yl)methyl)-8-fluoro-1-(4-fluorophenyl)-4-oxo-1,4-dihydroquinoline-3-carboxamide] | > 10 | 31.1 | –
19 | CN(Cc1cccnc1)c1ccc2c(c1)c(=O)c(C#N)cn2-c1ccc(F)cc1 [Compound 96, 1-(4-Fluorophenyl)-6-(methyl(pyridin-3-ylmethyl)amino)-4-oxo-1,4-dihydroquinoline-3-carbonitrile] | – | 3.44 | IC50 [2]: 3.16 µM
20 | N[C@](CC1c2ccccc2Oc2ccccc21)(C(=O)O)[C@H]1C[C@@H]1C(=O)O [LY341495] | – | – | antidepressant-like effects [3]: Antidepressant-like effects; Aβ-induced neurodegeneration [4]: prevented; antidepressant-like effects [5]: Antidepressant-like effects; marble-burying behavior [6]: significantly reduce marble-burying behavior; hypolocomotor effect of mGlu2/3 agonist (LY379268) [7]: achieved the same result; immobility time [8]: dose-dependently reduced; activity in the tail suspension test [9]: active; antidepressant effect in helpless mice ([9]; acute administration): potent antidepressant effect
21 | CCS(=O)(=O)N(Cc1cccnc1)c1cccc(-c2ccc(C#N)cc2)c1 [LY566332] | – | – | Aβ-induced neurodegeneration [4]: amplified
22 | N[C@]1(C(=O)O)[C@H]2[C@@H](C[C@H]1OCc1ccc(Cl)c(Cl)c1)[C@]2(F)C(=O)O [MGS0039] | – | – | antidepressant-like effects [3]: Antidepressant-like effects; freezing behavior [10]: significantly decreased; antidepressant-like effects [5]: Antidepressant-like effects; marble-burying behavior [6]: reduced marble-burying behavior; spontaneous locomotor activity [6]: no significant change; hyperactivity in the open field test [11]: attenuated the hyperactivity; learning deficit in the passive avoidance test [11]: attenuated the learning deficit; immobility in the FST [12]: reversed the increased immobility; number of escape failures [13]: significantly reduced
23 | Cc1cc(-c2cccc(C3=Nc4cc(C)c(C(F)(F)F)cc4NC(=O)C3)c2)cc(C)n1 [RO4491533] | – | – | hypolocomotor effect of mGlu2/3 agonist (LY379268) [7]: reversed the hypolocomotor effect; immobility time [8]: dose-dependently reduced; activity in the tail suspension test [9]: active
24 | CN1C(=O)CN=C(c2ccccc2)c2cc(Cl)ccc21 [diazepam] | – | – | freezing behavior [10]: significantly decreased
25 | CNCCC(Oc1ccc(C(F)(F)F)cc1)c1ccccc1 (centres unmarked) [fluoxetine] | – | – | antidepressant effect in helpless mice ([9]; chronic (21 days) treatment): full antidepressant effect
